According to patent US4675395A, “Cyclodextrin inclusion compound and process for its preparation” (Seiwa Technological Laboratories Limited, priority 1985, dated 1987):

Legend:
[1] = cited from earlier work
[2] = physchem; settings: water
[3] = background statement; cited from earlier work

For `CC(C)c1cccc(=O)c(O)c1` [hinokitiol], the “solubility in water at 25° C.” value [1] is listed as “about 0.12%”, the solubility [2] is listed as no more than 5 mM and the “bactericidal and bacteriostatic activity” value [3] is listed as “strong”.
